Source: US20160045505A1, “COMPOUNDS AND COMPOSITIONS FOR THE TREATMENT OF PARASITIC DISEASES” (NOVARTIS AG, priority 2013, published 2016)

Tests used:
[1] = tested on: Leishmania donovani axenic amastigote parasites; assay: Leishmania donovani axenic amastigote proliferation assay (Cell TiterGlo luminescence, 2 day incubation); assay type: cell-based; settings: Leishmania donovani, axenic amastigotes, inhibition of proliferation; read-out: L. donovani amastigotes EC50
[2] = tested on: L. donovani HU3 strain in mouse peritoneal macrophages; assay: Assay for proliferation of Leishmania parasites in infected mouse peritoneal macrophages (SybrGreen staining, high-content imaging, 5 days); assay type: cell-based, Leishmania donovani; settings: Leishmania donovani, Peritoneal macrophage, L. donovani in mouse peritoneal macrophages, inhibition of proliferation; read-out: L. donovani Macrophage EC50
[3] = tested on: Trypanosoma brucei Lister 427 strain, bloodstream form; assay: Assay for proliferation of kinetoplastid parasite Trypanosoma brucei (Cell Titer Glo, 48 hours); assay type: cell-based; settings: Trypanosoma brucei, T. brucei Lister 427 bloodstream form, inhibition of proliferation; read-out: T. brucei EC50
Procedure, shortened: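 Bloodstream-form T. brucei Lister 427 in HMI-9 medium was exposed to compound (DMSO vehicle) for 48 hours at 37° C, 5% CO2. Parasite growth was read as ATP by CellTiter-Glo luminescence, with EC50 calculated from percent inhibition.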

[4] = tested on: Trypanosoma cruzi amastigotes (Tulahuen strain expressing Lac-Z) cultured in 3T3 fibroblast cells; assay: microbe, parasite or virus in culture; assay type: cell-based; settings: Trypanosoma cruzi, TULAHUEN, Fibroblast, T. cruzi amastigotes in 3T3 fibroblast cells, inhibition of proliferation; read-out: T cruzi EC50

SMILES	EC50 [1] [nM]	EC50 [2] [nM]	EC50 [3] [nM]	EC50 [4] [nM]
Cc1nc(C)c(C(=O)Nc2cnc3nc(-c4cc(NC(=O)N5CCCC5)ccc4F)cn3c2)o1 [Compound 123]	423	> 50000	414	> 20000
O=C(Nc1cnc2nc(-c3cc(NC(=O)N4CCCC4)ccc3F)cn2c1)c1ccc(F)cn1 [Compound 124]	49	5640	23	46
O=C1CCC(C(=O)Nc2cnc3nc(-c4cc(NC(=O)N5CCCC5)ccc4F)cn3c2)N1 (stereo not drawn) [Compound 125]	> 21900	> 50000	7940	> 20000
O=C(Nc1cnc2nc(-c3cc(NC(=O)N4CCCC4)ccc3F)cn2c1)[C@H]1CCCO1 [Compound 126]	434	4050	126	4860
CC1(C(=O)Nc2cnc3nc(-c4cc(NC(=O)N5CCCC5)ccc4F)cn3c2)CCCO1 (stereo not drawn) [Compound 127]	561	2120	74	1980
CCC(O)(C(=O)Nc1cnc2nc(-c3cc(NC(=O)N4CCCC4)ccc3F)cn2c1)C(F)(F)F (stereo not drawn) [Compound 128]	1750	> 50000	171	> 20000
O=C(Nc1cnc2nc(-c3cc(NC(=O)N4CCCC4)ccc3F)cn2c1)C1CCCCO1 (stereo not drawn) [Compound 129]	435	1260	123	1340
O=C(Nc1cnc2nc(-c3cc(NC(=O)N4CCCC4)ccc3F)cn2c1)[C@@H]1CNCCO1 [Compound 130]	13900	26600	4660	7120
Cc1ncc(C(=O)Nc2cnc3nc(-c4cc(NC(=O)N5CCCC5)ccc4F)cn3c2)o1 [Compound 132]	2870	> 50000	1550	> 13800
CC1(C(=O)Nc2cnc3nc(-c4cc(NC(=O)N5CCCC5)ccc4F)cn3c2)CC1 [Compound 133]	97	607	19	1840
O=C(Nc1cnc2nc(-c3cc(NC(=O)N4CCCC4)ccc3F)cn2c1)C1CC1 [Compound 134]	267	8360	73	5200
O=C(Nc1cnc2nc(-c3cc(NC(=O)N4CCCC4)ccc3F)cn2c1)[C@@H]1CCCO1 [Compound 135]	255	3130	106	3790
CC1(C(=O)Nc2cnc3nc(-c4cc(NC(=O)N5CCCC5)ccc4F)cn3c2)CCCCO1 (stereo not drawn) [Compound 136]	392	1420	157	> 20000
COCCOCC(=O)Nc1cnc2nc(-c3cc(NC(=O)N4CCCC4)ccc3F)cn2c1 [Compound 137]	2150	24800	406	8010
CCOCC(=O)Nc1cnc2nc(-c3cc(NC(=O)N4CCCC4)ccc3F)cn2c1 [Compound 138]	549	3880	127	1950
COCC(=O)Nc1cnc2nc(-c3cc(NC(=O)N4CCCC4)ccc3F)cn2c1 [Compound 139]	450	6820	128	3740
O=C(Nc1ccc(F)c(-c2cn3cc(NC(=O)C4(O)CC4)cnc3n2)c1)N1CCCC1 [Compound 140]	1270	8380	378	> 17600
O=C1CC(C(=O)Nc2cnc3nc(-c4cc(NC(=O)N5CCCC5)ccc4F)cn3c2)C1 [Compound 141]	862	8280	1360	> 20000
CCn1ccnc1C(=O)Nc1cnc2nc(-c3cc(NC(=O)N4CCCC4)ccc3F)cn2c1 [Compound 142]	63	506	121	179
O=C(Nc1cnc2nc(-c3cc(NC(=O)N4CCCC4)ccc3F)cn2c1)C1COCCO1 (stereo not drawn) [Compound 143]	478	1400	159	7910
Cn1ccnc1C(=O)Nc1cnc2nc(-c3cc(NC(=O)N4CCCC4)ccc3F)cn2c1 [Compound 144]	555	> 50000	164	> 20000
CC1(C(=O)Nc2cnc3nc(-c4cc(NC(=O)N5CCCC5)ccc4F)cn3c2)CCC1 [Compound 145]	223	464	45	1730
CC1(C(=O)Nc2cnc3nc(-c4cc(NC(=O)N5CCCC5)ccc4F)cn3c2)CC(F)(F)C1 [Compound 146]	1050	7180	236	> 20000

SMILES	EC50 [1] [nM]	EC50 [2] [nM]	EC50 [3] [nM]	EC50 [4] [nM]
O=C(Nc1cnc2nc(-c3cc(NC(=O)N4CCCC4)ccc3F)cn2c1)c1ccccn1 [Compound 147]	74	67	19	65
Cc1csc(C(=O)Nc2cnc3nc(-c4cc(NC(=O)c5oc(C)nc5C)ccc4F)cn3c2)n1 [Compound 148]	51	222	61	90
Cc1nc(C)c(C(=O)Nc2ccc(F)c(-c3cn4cc(NC(=O)C5CCCO5)cnc4n3)c2)o1 (stereo not drawn) [Compound 149]	241	617	516	1880
Cc1nc(C)c(C(=O)Nc2ccc(F)c(-c3cn4cc(NC(=O)c5oc(C)nc5C)cnc4n3)c2)o1 [Compound 150]	532	43800	506	> 20000
Cc1nc(C)c(C(=O)Nc2ccc(F)c(-c3cn4cc(NC(=O)C5CN(C)CCO5)cnc4n3)c2)o1 (stereo not drawn) [Compound 152]	1730	2380	425	4670
Cc1nc(C)c(C(=O)Nc2ccc(F)c(-c3cn4cc(NC(=O)C5(C#N)CC5)cnc4n3)c2)o1 [Compound 153]	348	901	135	3400
Cc1nc(C)c(C(=O)Nc2ccc(F)c(-c3cn4cc(NC(=O)C5CCCOC5)cnc4n3)c2)o1 (stereo not drawn) [Compound 154]	997	2530	1480	6180
Cc1nc(C)c(C(=O)Nc2ccc(F)c(-c3cn4cc(NC(=O)CC5CCCCO5)cnc4n3)c2)o1 (stereo not drawn) [Compound 155]	1550	3720	796	2410
Cc1nc(C)c(C(=O)Nc2ccc(F)c(-c3cn4cc(NC(=O)C5CCC(=O)O5)cnc4n3)c2)o1 (stereo not drawn) [Compound 156]	3880	> 50000	10600	> 20000
Cc1nc(C)c(C(=O)Nc2ccc(F)c(-c3cn4cc(NC(=O)[C@@H]5[C@@H]6CCC(O6)[C@@H]5N)cnc4n3)c2)o1 [Compound 157]	> 25000	> 50000	31300	> 20000
Cc1nc(C)c(C(=O)Nc2ccc(F)c(-c3cn4cc(NC(=O)C5CCOCC5)cnc4n3)c2)o1 [Compound 158]	1920	> 50000	4100	> 20000
Cc1nc(C)c(C(=O)Nc2ccc(F)c(-c3cn4cc(NC(=O)C5CCOC(C)(C)C5)cnc4n3)c2)o1 (stereo not drawn) [Compound 159]	2890	10100	1470	9950
Cc1nc(C)c(C(=O)Nc2ccc(F)c(-c3cn4cc(NC(=O)[C@H]5NCC[C@@H]5O)cnc4n3)c2)o1 [Compound 160]	> 25000	> 50000	28700	> 20000
Cc1nc(C)c(C(=O)Nc2ccc(F)c(-c3cn4cc(NC(=O)[C@@H]5CCCO5)cnc4n3)c2)o1 [Compound 161]	206	655	170	2540
Cc1nc(C(=O)Nc2cnc3nc(-c4cc(NC(=O)c5oc(C)nc5C)ccc4F)cn3c2)c(C)o1 [Compound 162]	65	540	52	127
Cc1nc(C)c(C(=O)Nc2ccc(F)c(-c3cn4cc(NC(=O)[C@](C)(O)C(F)(F)F)cnc4n3)c2)o1 [Compound 163]	830	4450	399	10900
Cc1nc(C)c(C(=O)Nc2ccc(F)c(-c3cn4cc(NC(=O)[C@H]5CCCO5)cnc4n3)c2)o1 [Compound 164]	280	913	196	1990
Cc1nc(C)c(C(=O)Nc2ccc(F)c(-c3cn4cc(NC(=O)C5CCCCN5C)cnc4n3)c2)o1 (stereo not drawn) [Compound 165]	> 25000	> 50000	1450	5180
COCCC(=O)Nc1cnc2nc(-c3cc(NC(=O)c4oc(C)nc4C)ccc3F)cn2c1 [Compound 166]	2280	> 46300	1010	> 20000
Cc1nc(C)c(C(=O)Nc2ccc(F)c(-c3cn4cc(NC(=O)c5c[nH]cn5)cnc4n3)c2)o1 [Compound 167]	10800	> 50000	904	> 20000
Cc1nc(C)c(C(=O)Nc2ccc(F)c(-c3cn4cc(NC(=O)[C@@H]5CCCC[C@@H]5N)cnc4n3)c2)o1 [Compound 168]	20300	24400	4370	> 18400
COC1CCC(C(=O)Nc2cnc3nc(-c4cc(NC(=O)c5oc(C)nc5C)ccc4F)cn3c2)CC1 (stereo not drawn) [Compound 169]	700	2420	523	3870
